Values after ≈ are worked out from the molar mass of the structure shown. Like-named read-outs stand apart in the source and are kept apart here. Numbered stars: 1 amine (or outer) side, 2 acyl side, 3 side chain; on linkers, the order of the positions; unused ones are H or OH. Square brackets hold non-standard residues; d marks the D form. Peptide text beside a SMILES is read from it. X1 = CC(C)[C@H](C)N(CC(=O)[*:2])[*:1]; Nspe = C[C@H](NCC(=O)O)c1ccccc1; Nlys = NCCCCNCC(=O)O
Experiments:
[1] = system: erythrocytes; experiment: Hemolytic activity (HD10/HD50); assay type: cell-based
Source text: Table 1 Characteristics of antimicrobial peptoids, screened for activity against B. subtilis and E. coli bacterial strains. | column: HD10 / HD50

[2] = system: B. subtilis ATCC 6633; assay type: cell-based
Method in brief: (§1)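 MICs determined by 2:1 serial broth microdilution in cation-adjusted Mueller-Hinton broth per CLSI M7-A6, using inoculum at 1 x 10^6 CFU/mL mixed 1:1 with peptoid solution. Three independent replicates, each with two parallel trials.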

[3] = system: E. coli ATCC 35218; assay type: cell-based
Method in brief: as §1

[4] = system: P. aeruginosa H1027 (MDR); experiment: microbe, parasite or virus in culture
Method in brief: (§2)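 Growth inhibition is determined by modified microdilution in Mueller Hinton broth, with peptoids prepared in 0.01% acetic acid containing 0.2% bovine serum albumin. Final inoculum is 2–7 x 10^5 CFU/mL; endpoint is absence of growth after overnight 37°C.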

[5] = system: P. aeruginosa LES400 (MDR); experiment: microbe, parasite or virus in culture
Method in brief: as §2

[6] = system: E. faecalis ATCC29212; experiment: microbe, parasite or virus in culture
Method in brief: as §2

[7] = system: E. coli 63103 (ESBL); experiment: microbe, parasite or virus in culture
Method in brief: as §2

[8] = system: E. faecalis F43559 (VRE); experiment: microbe, parasite or virus in culture
Method in brief: as §2

[9] = system: K. pneumonia 63575 (ESBL); experiment: microbe, parasite or virus in culture
Method in brief: as §2

[10] = system: P. maltophilia ATCC13637; experiment: microbe, parasite or virus in culture
Method in brief: as §2

[11] = system: P. aeruginosa H103 (wild type); experiment: microbe, parasite or virus in culture
Method in brief: as §2

[12] = system: P. aeruginosa 198 (MDR); experiment: microbe, parasite or virus in culture
Method in brief: as §2

[13] = system: P. aeruginosa H1030 (MDR); experiment: microbe, parasite or virus in culture; conditions: P. aeruginosa H1030 (MDR)
Method in brief: as §2

[14] = system: E. coli 64771 (ESBL); experiment: microbe, parasite or virus in culture
Method in brief: as §2

[15] = system: P. aeruginosa 213 (MDR); experiment: microbe, parasite or virus in culture
Method in brief: as §2

[16] = system: E. faecalis W61950 (VRE); experiment: microbe, parasite or virus in culture
Method in brief: as §2

[17] = system: E. cloacae 218R Class C β-lactamase; experiment: microbe, parasite or virus in culture
Method in brief: as §2

[18] = system: S. aureus ATCC25923; experiment: microbe, parasite or virus in culture
Method in brief: as §2

[19] = system: K. pneumonia 61962 (ESBL); experiment: microbe, parasite or virus in culture
Method in brief: as §2

[20] = system: E. faecium T62764 (VRE); experiment: microbe, parasite or virus in culture
Method in brief: as §2

[21] = system: S. aureus C623 (MRSA); experiment: microbe, parasite or virus in culture
Method in brief: as §2

[22] = system: E. faecium mic80 (VRE); experiment: microbe, parasite or virus in culture
Method in brief: as §2

[23] = system: P. aeruginosa 9 (MDR); experiment: microbe, parasite or virus in culture
Method in brief: as §2

[24] = system: NIH 3T3 cells; experiment: Metabolic activity, MTS assay; assay type: cell-based, mouse
Protocol: NIH 3T3 mouse fibroblast cells were cultured in complete Dulbecco’s Modified Eagle’s Media. A peptoid solution plate (100 µL per well) was prepared by serial dilution of aqueous peptoid stock solutions in Hank’s balanced salt solution. A day-old cell monolayer was washed thoroughly with Hank’s balanced salt solution and replenished with 100 µL Hank’s balanced salt solution per well. Peptoid solutions were transferred onto the day-old cell monolayers, which contained approximately 5000 cells per well. […] The average of six replicate trials is reported.

Compound | MIC B. subtilis [2] | MIC E. coli [3] | MIC ([6]; E. faecalis ATCC29212) | MIC [13] | ID50 (inhibitory dose, metabolic activity) [24] | HD10 (hemolytic activity) [1] | HD50 (hemolytic activity) [1] | MIC ([4]; H1027 (MDR)) | MIC ([5]; LES400 (MDR)) | MIC ([7]; 63103 (ESBL)) | MIC ([8]; F43559 (VRE)) | MIC [9] | MIC ([10]; ATCC13637) | MIC ([11]; H103 (wild type)) | MIC ([12]; 198 (MDR)) | MIC ([14]; 64771 (ESBL)) | MIC ([15]; 213 (MDR)) | MIC ([16]; W61950 (VRE)) | MIC ([17]; 218R Class C β-lactamase) | MIC ([18]; ATCC25923) | other results
C[C@H](c1ccccc1)N(CC(N)=O)C(=O)CN(C(=O)CN(CCCCN)C(=O)CN(C(=O)CN(C(=O)CN(CCCCN)C(=O)CN(C(=O)CN(C(=O)CN(CCCCN)C(=O)CN(C(=O)CN(C(=O)CNCCCCN)[C@@H](C)c1ccccc1)[C@H](C)c1ccccc1)[C@@H](C)c1ccccc1)[C@H](C)c1ccccc1)[C@@H](C)c1ccccc1)[C@H](C)c1ccccc1)[C@@H](C)c1ccccc1 [1-Nrpe3,6,9,12, H-(NLys-Nspe-Nrpe)4-NH2] | 1.6 µM (≈ 2.91 µg/mL) | 6.3 µM (≈ 11.5 µg/mL) | 4 µg/mL (≈ 2.2 µM) | 8 µg/mL (≈ 4.4 µM) |  |  |  |  |  |  |  |  |  |  |  |  |  |  |  |  | HD10 (hemolytic activity) ([1]; erythrocytes, first value of HD10 / HD50 cell): 16; HD50 (hemolytic activity) ([1]; erythrocytes, second value of HD10 / HD50 cell): 67; MIC ([4]; P. aeruginosa H1027 (MDR)): 4 µg/mL (≈ 2.2 µM); MIC ([5]; P. aeruginosa LES400 (MDR)): 4 µg/mL (≈ 2.2 µM); MIC ([7]; E. coli 63103 (ESBL)): 4 µg/mL (≈ 2.2 µM); MIC ([8]; E. faecalis F43559 (VRE)): 4 µg/mL (≈ 2.2 µM); MIC ([9]; K. pneumonia 63575 (ESBL)): 16 µg/mL (≈ 8.79 µM); MIC ([10]; P. maltophilia ATCC13637): 2 µg/mL (≈ 1.1 µM); MIC ([11]; P. aeruginosa H103 (wild type)): 8 µg/mL (≈ 4.4 µM); MIC ([12]; P. aeruginosa 198 (MDR)): 8 µg/mL (≈ 4.4 µM); MIC ([14]; E. coli 64771 (ESBL)): 4 µg/mL (≈ 2.2 µM); MIC ([15]; P. aeruginosa 213 (MDR)): 8 µg/mL (≈ 4.4 µM); MIC ([16]; E. faecalis W61950 (VRE)): 8 µg/mL (≈ 4.4 µM); MIC ([17]; E. cloacae 218R Class C β-lactamase): 4 µg/mL (≈ 2.2 µM); MIC ([18]; S. aureus ATCC25923): 4 µg/mL (≈ 2.2 µM); MIC ([19]; K. pneumonia 61962 (ESBL)): 8 µg/mL (≈ 4.4 µM); MIC ([20]; E. faecium T62764 (VRE)): 1 µg/mL (≈ 0.55 µM); MIC ([21]; S. aureus C623 (MRSA)): 4 µg/mL (≈ 2.2 µM); MIC ([22]; E. faecium mic80 (VRE)): 4 µg/mL (≈ 2.2 µM); MIC ([23]; P. aeruginosa 9 (MDR)): 32 µg/mL (≈ 17.6 µM)
CC(C)[C@H](C)N(CC(=O)N(CC(=O)N(CCCCN)CC(=O)N(CC(=O)N(CC(=O)N(CCCCN)CC(=O)N(CC(=O)N(CC(=O)N(CCCCN)CC(=O)N(CC(=O)N(CC(N)=O)[C@@H](C)c1ccccc1)[C@@H](C)C(C)C)[C@@H](C)c1ccccc1)[C@@H](C)C(C)C)[C@@H](C)c1ccccc1)[C@@H](C)C(C)C)[C@@H](C)c1ccccc1)C(=O)CNCCCCN [1-Nsdp2.5.8.11, H-(NLys-Nsdp-Nspe)4-NH2] (H-[Nlys][X1][Nspe][Nlys][X1][Nspe][Nlys][X1][Nspe][Nlys][X1][Nspe]-NH2) | 0.78 µM (≈ 1.31 µg/mL) | 12.5 µM (≈ 21 µg/mL) | 8 µg/mL (≈ 4.75 µM) | 16 µg/mL (≈ 9.51 µM) | 20 µM | 111 | > 200 | 4 µg/mL (≈ 2.38 µM) | 16 µg/mL (≈ 9.51 µM) | 16 µg/mL (≈ 9.51 µM) | 32 µg/mL (≈ 19 µM) | 32 µg/mL (≈ 19 µM) | 1 µg/mL (≈ 0.594 µM) | 8 µg/mL (≈ 4.75 µM) | 32 µg/mL (≈ 19 µM) | 8 µg/mL (≈ 4.75 µM) | 16 µg/mL (≈ 9.51 µM) | 32 µg/mL (≈ 19 µM) | 16 µg/mL (≈ 9.51 µM) | 8 µg/mL (≈ 4.75 µM) | MIC [19]: 64 µg/mL (≈ 38 µM); MIC ([20]; T62764 (VRE)): 2 µg/mL (≈ 1.19 µM); MIC ([21]; C623): 8 µg/mL (≈ 4.75 µM); MIC ([22]; mic80 (VRE)): 4 µg/mL (≈ 2.38 µM); MIC ([23]; 9 (MDR)): 256 µg/mL (≈ 152 µM)
C[C@@H](c1ccccc1)N(CC(N)=O)C(=O)CN(C(=O)CN(CCCCN)C(=O)CN(C(=O)CN(C(=O)CN(CCCCN)C(=O)[C@@H]1CCCN1C(=O)CN(C(=O)CN(CCCCN)C(=O)CN(C(=O)CN(C(=O)CNCCCCN)[C@@H](C)c1ccccc1)[C@@H](C)c1ccccc1)[C@@H](C)c1ccccc1)[C@@H](C)c1ccccc1)[C@@H](C)c1ccccc1)[C@@H](C)c1ccccc1 [Peptoid 1-Pro6, H-NLys-Nspe2-NLys-Nspe-L-Pro-(NLys-Nspe2)2-NH2] (H-[Nlys][Nspe][Nspe][Nlys][Nspe]P[Nlys][Nspe][Nspe][Nlys][Nspe][Nspe]-NH2) |  | 12.5 µM (≈ 21.9 µg/mL) |  | 16 µg/mL (≈ 9.12 µM) | 18 µM | 83 | > 200 | 4 µg/mL (≈ 2.28 µM) | 8 µg/mL (≈ 4.56 µM) | 16 µg/mL (≈ 9.12 µM) | 8 µg/mL (≈ 4.56 µM) | 32 µg/mL (≈ 18.2 µM) | 2 µg/mL (≈ 1.14 µM) | 8 µg/mL (≈ 4.56 µM) | 16 µg/mL (≈ 9.12 µM) | 8 µg/mL (≈ 4.56 µM) | 16 µg/mL (≈ 9.12 µM) | 32 µg/mL (≈ 18.2 µM) | 16 µg/mL (≈ 9.12 µM) | 4 µg/mL (≈ 2.28 µM) | MIC ([6]; ATCC29212): 8 µg/mL (≈ 4.56 µM); MIC [19]: 64 µg/mL (≈ 36.5 µM); MIC ([20]; T62764 (VRE)): 1 µg/mL (≈ 0.57 µM); MIC ([21]; C623): 8 µg/mL (≈ 4.56 µM); MIC ([22]; mic80 (VRE)): 8 µg/mL (≈ 4.56 µM); MIC ([23]; 9 (MDR)): 256 µg/mL (≈ 146 µM)

Source: article PMC4744035, “In Vivo, In Vitro, and In Silico Characterization of Peptoids as Antimicrobial Agents” (PLoS ONE, 2016)
